In patent US7842838B2, “Pyrro[1,2-b]pyridazinone intermediates” (Anadys Pharmaceuticals, Inc., priority 2006, dated 2010):
pIC50: −log10 of the molar value.

Target: NS5B polymerase (Hepatitis C virus genotype 1b, UniProt P26663)
Assay: HCV NS5B polymerase inhibition assay (streptavidin-coated FlashPlate, [α-33P]GTP incorporation)
Type: biochemical
Conditions: not given
Experimental: Compounds were tested for HCV polymerase inhibition. Assays were performed in a 96-well streptavidin-coated FlashPlate using 20 nM enzyme, 0.5 μCi of [α-^33P]GTP, 0.6 μM GTP, and 250 nM 5′biotinylated oligo (rG13)/poly rC in 20 mM Tris-HCl, pH 7.5, 5 mM MgCl2, 5 mM dithiothreitol, […] bovine serum albumin, and 100 U/mL RNAse inhibitor. The reaction was stopped by aspiration after 75 min at 28° C. and the plate was washed several times. After washing and drying the plate, incorporated radioactivity was counted using a Microbeta scintillation counter. IC50 values were calculated relative to the uninhibited control and inhibition data were fitted to a 4-parameter IC50 equation.

NS5B polymerase, sequence (P26663 2420-3010): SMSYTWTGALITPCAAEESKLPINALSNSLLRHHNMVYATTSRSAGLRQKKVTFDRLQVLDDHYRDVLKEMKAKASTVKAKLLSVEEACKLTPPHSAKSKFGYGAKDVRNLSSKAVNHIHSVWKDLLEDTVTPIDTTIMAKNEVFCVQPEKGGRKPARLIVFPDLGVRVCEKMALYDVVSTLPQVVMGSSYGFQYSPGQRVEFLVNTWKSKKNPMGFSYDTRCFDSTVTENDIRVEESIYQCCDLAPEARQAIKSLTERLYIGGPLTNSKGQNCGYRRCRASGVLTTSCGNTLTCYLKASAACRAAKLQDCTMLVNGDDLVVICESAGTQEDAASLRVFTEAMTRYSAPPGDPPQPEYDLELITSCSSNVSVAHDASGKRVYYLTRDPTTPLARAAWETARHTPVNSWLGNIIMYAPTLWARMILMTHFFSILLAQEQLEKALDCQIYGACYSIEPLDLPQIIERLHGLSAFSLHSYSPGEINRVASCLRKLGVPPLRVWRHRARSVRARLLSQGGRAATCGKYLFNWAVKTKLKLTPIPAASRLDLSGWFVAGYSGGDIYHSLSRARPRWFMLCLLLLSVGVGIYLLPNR

Structure (SMILES) | pIC50
CS(=O)(=O)Nc1ccc2c(c1)S(=O)(=O)N=C(c1c(O)c3cccn3n(Cc3ccc(F)c(Cl)c3)c1=O)N2 [Example 17, N-{3-[1-(3-Chloro-4-fluoro-benzyl)-4-hydroxy-2-oxo-1,2-dihydro-pyrrolo[1,2-b]pyridazin-3-yl]-1,1-dioxo-1,4-dihydro-1λ^6-benzo[1,2,4]thiadiazin-7-yl}-methanesulfonamide] | > 7.00
CC(C)CCn1c(=O)c(C2=Nc3ccc(NS(C)(=O)=O)cc3S(=O)(=O)N2)c(O)c2cccn21 [Example 3, N-{3-[4-Hydroxy-1-(3-methyl-butyl)-2-oxo-1,2-dihydro-pyrrolo[1,2-b]pyridazin-3-yl]-1,1-dioxo-1,4-dihydro-1λ^6-benzo[1,2,4]thiadiazin-7-yl}-methanesulfonamide] | > 7.00

Same assay, conditions: 20 nM enzyme, 75 min at 28° C.; read-out: NS5B Polymerase IC50

Structure (SMILES) | pIC50
O=c1c(C2=NS(=O)(=O)c3cc(C4CCCS4(=O)=O)ccc3N2)c(O)c2cccn2n1Cc1ccc(F)cc1 (centres unmarked) [Example 11, 3-[7-(1,1-Dioxo-tetrahydro-1λ^6-thiophen-2-yl)-1,1-dioxo-1,4-dihydro-1λ^6-benzo[1,2,4]thiadiazin-3-yl]-1-(4-fluoro-benzyl)-4-hydroxy-pyrrolo[1,2-b]pyridazin-2-one] | 5.52 to 7.00
CN(c1ccc2c(c1)S(=O)(=O)N=C(c1c(O)c3cccn3n(Cc3ccc(F)cc3)c1=O)N2)S(C)(=O)=O [Example 10, N-{3-[1-(4-Fluoro-benzyl)-4-hydroxy-2-oxo-1,2-dihydro-pyrrolo[1,2-b]pyridazin-3-yl]-1-dioxo-1,4-dihydro-1λ^6-benzo[1,2,4]thiadiazin-7-yl}-N-methyl-methanesulfonamide] | 5.52 to 7.00
CC(C)CCn1c(=O)c(C2=CS(=O)(=O)c3cc(N(C)S(C)(=O)=O)ccc3N2)c(O)c2cccn21 [Example 7, N-{3-[4-Hydroxy-1-(3-methyl-butyl)-2-oxo-1,2-dihydro-pyrrolo[1,2-b]pyridazin-3-yl]-1,1-dioxo-1,4-dihydro-1λ^6-benzo[1,4]thiazin-7-yl}-N-methyl-methanesulfonamide] | 5.52 to 7.00
CC(C)CCn1c(=O)c(C2=NS(=O)(=O)c3cc(N(C)S(C)(=O)=O)ccc3N2)c(O)c2cccn21 [Example 6, N-{3-[4-Hydroxy-1-(3-methyl-butyl)-2-oxo-1,2-dihydro-pyrrolo[1,2-b]pyridazin-3-yl]-1,1-dioxo-1,4-dihydro-1λ^6-benzo[1,2,4]thiadiazin-7-yl}-N-methyl-methanesulfonamide] | 5.52 to 7.00
CC(C)CCn1c(=O)c(C2=NS(=O)(=O)c3cc(NS(C)(=O)=O)ccc3N2)c(O)c2cc(C#N)cn21 [Example 15, N-{3-[6-Cyano-4-hydroxy-1-(3-methyl-butyl)-2-oxo-1,2-dihydro-pyrrolo[1,2-b]pyridazin-3-yl]-1,1-dioxo-1,4-dihydro-1λ^6-benzo[1,2,4]thiadiazin-7-yl}-methanesulfonamide] | 5.52 to 7.00

Continued, values first:

pIC50 | Structure (SMILES)
5.52 to 7.00 | O=c1c(C2=NS(=O)(=O)c3ccccc3N2)c(O)c2cccn2n1Cc1ccc(F)cc1 [Example 12, 3-(1,1-Dioxo-1,4-dihydro-1λ^6-benzo[1,2,4]thiadiazin-3-yl)-1-(4-fluoro-benzyl)-4-hydroxy-pyrrolo[1,2-b]pyridazin-2-one]
> 7.00 | CC(C)CCn1c(=O)c(C2=NS(=O)(=O)c3cc(NS(C)(=O)=O)ccc3N2)c(O)c2cc(F)cn21 [Example 14, N-{3-[6-Fluoro-4-hydroxy-1-(3-methyl-butyl)-2-oxo-1,2-dihydro-pyrrolo[1,2-b]pyridazin-3-yl]-1,1-dioxo-1,4-dihydro-1λ^6-benzo[1,2,4]thiadiazin-7-yl}-methanesulfonamide]
> 7.00 | CC(C)(C)CCn1c(=O)c(C2=CS(=O)(=O)c3cc(NS(C)(=O)=O)ccc3N2)c(O)c2cccn21 [Example 8, N-{3-[1-(3,3-Dimethyl-butyl)-4-hydroxy-2-oxo-1,2-dihydro-pyrrolo[1,2-b]pyridazin-3-yl]-1,1-dioxo-1,4-dihydro-1λ^6-benzo[1,4]thiazin-7-yl}-methanesulfonamide]
5.52 to 7.00 | COc1ccc2c(c1)S(=O)(=O)N=C(c1c(O)c3cccn3n(CCC(C)C)c1=O)N2 [Example 2, 4-Hydroxy-3-(7-methoxy-1,1-dioxo-1,4-dihydro-1λ^6-benzo[1,2,4]thiadiazin-3-yl)-1-(3-methyl-butyl)-pyrrolo[1,2-b]pyridazin-2-one]
5.52 to 7.00 | CC(C)CCn1c(=O)c(C2=NS(=O)(=O)c3ccccc3N2)c(O)c2cccn21 [Example 1, 3-(1,1-Dioxo-1,4-dihydro-1λ^6-benzo[1,2,4]thiadiazin-3-yl)-4-hydroxy-1-(3-methyl-butyl)-pyrrolo[1,2-b]pyridazin-2-one]
5.52 to 7.00 | CC(C)CCn1c(=O)c(C2=NS(=O)(=O)c3cc(NS(=O)(=O)C4CC4)ccc3N2)c(O)c2cccn21 [Example 13, Cyclopropanesulfonic acid {3-[4-hydroxy-1-(3-methyl-butyl)-2-oxo-1,2-dihydro-pyrrolo[1,2-b]pyridazin-3-yl]-1,1-dioxo-1,4-dihydro-1λ^6-benzo[1,2,4]thiadiazin-7-yl}-amide]
> 7.00 | CS(=O)(=O)Nc1ccc2c(c1)S(=O)(=O)N=C(c1c(O)c3cccn3n(Cc3ccc(F)cc3)c1=O)N2 [Example 9, N-{3-[1-(4-Fluoro-benzyl)-4-hydroxy-2-oxo-1,2-dihydro-pyrrolo[1,2-b]pyridazin-3-yl]-1,1-dioxo-1,4-dihydro-1λ^6-benzo[1,2,4]thiadiazin-7-yl}-methanesulfonamide]
> 7.00 | CN(c1ccc2c(c1)S(=O)(=O)N=C(c1c(O)c3cccn3n(CCC(C)(C)C)c1=O)N2)S(C)(=O)=O [Example 5, N-{3-[1-(3,3-Dimethyl-butyl)-4-hydroxy-2-oxo-1,2-dihydro-pyrrolo[1,2-b]pyridazin-3-yl]-1,1-dioxo-1,4-dihydro-1λ^6-benzo[1,2,4]thiadiazin-7-yl}-N-methyl-methanesulfonamide]
> 7.00 | CC(C)CCn1c(=O)c(C2=CS(=O)(=O)c3cc(NS(C)(=O)=O)ccc3N2)c(O)c2cccn21 [Example 16, N-{3-[4-Hydroxy-1-(3-methyl-butyl)-2-oxo-1,2-dihydro-pyrrolo[1,2-b]pyridazin-3-yl]-1,1-dioxo-1,4-dihydro-1λ^6-benzo[1,4]thiazin-7-yl}-methanesulfonamide]
> 7.00 | CC(C)(C)CCn1c(=O)c(C2=NS(=O)(=O)c3cc(NS(C)(=O)=O)ccc3N2)c(O)c2cccn21 [Example 4, N-{3-[1-(3,3-Dimethyl-butyl)-4-hydroxy-2-oxo-1,2-dihydro-pyrrolo[1,2-b]pyridazin-3-yl]-1,1-dioxo-1,4-dihydro-1λ^6-benzo[1,2,4]thiadiazin-7-yl}-methanesulfonamide]
